These are literature values, as cited in patent publication US20120263714A1, “SUBSTITUTED HALOPHENOXYBENZAMIDE DERIVATIVES” (BAYER INTELLECTUAL PROPERTY GMBH, priority 2009, published 2012).

In data set [1] the test system is colon cancer. The conditions noted are these: oral treatment, mouse models.
For data set [2], the system named is MEK1/2. The conditions noted are these: MEK1/2 inhibitor, background statement.

For the compound `O=C(NOCC1CC1)c1ccc(F)c(F)c1Nc1ccc(I)cc1Cl` [CI-1040], in data set [1], the “colon cancer growth in vivo” value is “inhibit colon cancer growth in vivo”. In addition, the IC50 result in data set [2] is listed as “low nanomolar range”.
